Experiments:
[1] = molecular target: T1, GlgA (Mycobacterium tuberculosis, UniProt P9WMZ1); assay type: biochemical
T1 construct: gene glgM

[2] = molecular target: T1, GlgA; assay type: biochemical; remark: listed apart in the source
[3] = molecular target: T1, GlgA; assay: biochemical
[4] = molecular target: GlgP (Mycobacterium tuberculosis, UniProt P9WMW1); assay type: biochemical

**Q.** With `O=P(O)(O)O[C@H]1O[C@H](CO)[C@@H](O[C@H]2O[C@H](CO)[C@@H](O)[C@H](O)[C@H]2O)[C@H](O)[C@H]1O` [M1P, α-maltose 1-phosphate] as the molecule, how does the “1H NMR and high resolution MS of the enzyme reaction product” value [1] read?
**A.** Its value is “Recombinant M. tuberculosis GlgA converts ADP-glucose and G1P to M1P”.

**Q.** For `Nc1ncnc2c1ncn2[C@@H]1O[C@H](COP(=O)(O)OP(=O)(O)O)[C@@H](O)[C@H]1O` [ADP], which “MS of reaction products; coupled assay of ADP release” value [2] is on record?
**A.** The value was “The next most abundant ion is consistent with the presence of the co-product, ADP”.

**Q.** Which Ki [3] does the source give for `O=P(O)(O)O[C@H]1O[C@H](CO)[C@@H](O)[C@H](O)[C@H]1O` [G1P, glucose 1-phosphate] here?
**A.** Its Ki is 895 ± 60 µM.

**Q.** And the “1H NMR of glycogen phosphorolysis by recombinant enzyme” value [4]?
**A.** The value was “recombinant M. tuberculosis GlgP was only capable of forming G1P from glycogen and inorganic phosphate”.

— PMC4981310 (PLoS Pathogens, 2016)
